From US20240118281A1, “ANTICANCER COMPOUNDS AND USES THEREOF” (University of Florida Research Foundation, Incorporated, priority 2021, published 2024)

Columns and labels:
MDA-MB-468 cells [1] = assay: Cell viability (MTT) assay; type: cell-based; details: FIG. 1D
Protocol: MTT (3-(4,5-dimethylthiazol-2-yl)-2,5-diphenyltetrazolium bromide) (Biomatik, Wilmington, DE) assays were performed by plating 7,500 cells/well in 10% FBS/DMEM in a 96-well plate, followed by incubation at 37° C. for 24 h. Cells were then treated with vehicle or increasing concentrations of tcyDTDO, dMtcyDTDO, or dFtcyDTDO and incubated at 37° C. for 72 h. Cell media was subsequently removed from each well and MTT assays were initiated by incubating cells with 0.5 mg/ml MTT in PBS for 3 h, followed by removal of the MTT solution and addition of 100 µL of DMSO to each well for 30 min. Absorbance of the MTT formazan product was subsequently measured at 570 and 690 (reference) nm in a plate reader.

MDA-MB-468 cells [2] = assay: 3H-Leucine protein synthesis assay; type: cell-based; details: 24 h, FIG. 9A
Protocol: Protein synthesis assays utilizing ^3H-Leucine purchased from Perkin Elmer (Waltham, MA) were carried out as detailed previously (Law B K, et al. J Biol Chem 2000; 275: 10796-10801; Law B K, et al. J Biol Chem 2000; 275: 38261-38267).

AGR3 = molecular target: T1, AGR3 (Homo sapiens, UniProt Q8TD06); assay: DDA binding assay with AGR3; details: molar excess, pre-incubation with 600 μM, FIG. 2D
T1 construct: His6 (N); purchased ProSpec PRO-242
T1 sequence (Q8TD06 22-166): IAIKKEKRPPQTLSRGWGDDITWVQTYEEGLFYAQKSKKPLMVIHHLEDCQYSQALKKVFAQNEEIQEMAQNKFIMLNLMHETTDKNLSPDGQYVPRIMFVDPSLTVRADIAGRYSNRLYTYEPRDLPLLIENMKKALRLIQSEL
Protocol: Purified His6-AGR2 or His6-AGR2 C81S, as prepared above, or His6-AGR2 (PRO-580) or His6-AGR3 (PRO-242) obtained from ProSpec (New Brunswick NJ) were incubated with or without varying concentrations of the unlabeled DDA competitors, tcyDTDO or dMtcyDTDO, and 30 μM Biotin-GlyPyrDTDO or Biotin-PyrDTDO in buffer (20 mM HEPES (pH 7.4), 1 mM EDTA, 1 mM EGTA, 5% Glycerol, 1 nM Microcystin, 1 mM Na3VO4, and 40 mM Na2H2P2O7) containing 1% Triton-X 100 for 30 min at 37° C. […] Therefore, the two probes were used interchangeably. Reactions were stopped by boiling the samples in 2×-SDS-Sample Buffer containing 100 mM NEM for 10 min. Biotin-DDA labeling of protein was verified by blotting with Streptavidin-Alkaline Phosphatase (Rockland Immunochemicals, Inc., Limerick, PA). ERp44 (PRO-547) and PDIA1 (ENZ-262) were obtained from ProSpec and used in experiments examining the binding of these proteins to Biotin-PyrDTDO.

For CO[C@H]1C[C@@H]2CS(=O)(=O)SC[C@H]2C[C@@H]1OC [dMtcyDTDO, dimethoxy-tcyDTDO], the “Potency in cell viability assays relative to tcyDTDO” value (MDA-MB-468 cells [1]) was “approximately two-fold greater potency than tcyDTDO”, the “Potency in protein synthesis assay relative to tcyDTDO” value (MDA-MB-468 cells [2]) was “two-fold greater potency than tcyDTDO” and the “Competition with Biotin-GlyPyrDTDO binding to AGR3” value (AGR3) was “partially prevented Biotin-GlyPyrDTDO binding”.
